Reference: ChEMBL document CHEMBL6092194, “Development of membrane-targeting chalcone derivatives as antibacterial agents against multidrug-resistant bacteria” (Eur J Med Chem, 2024)
Calls of active or inactive are those of the source. No cut-off for these calls is given here.

What was measured:
Staphylococcus aureus [1] = experiment: Antibacterial activity against Staphylococcus aureus ATCC43300 infected in sepsis mouse model assessed as log reduction in bacterial load in blood at 5 mg/kg pre-infected with bacteria for 1 hrs followed by compound administration at 12 hrs interval for 2 days relative to control; type: functional; conditions: time 2 day
Escherichia coli [2] = experiment: Antibiofilm activity against Escherichia coli ATCC25922 assessed as inhibition of biofilm formation at 16 microg/ml relative to control; type: functional
Staphylococcus aureus [3] = experiment: Bactericidal activity against Staphylococcus aureus ATCC43300 measured upto 24 hrs by time-kill kinetics assay; type: functional, organism-based; conditions: dose 1-8 µg/ml
Staphylococcus aureus [4] = experiment: Antibacterial activity against Staphylococcus aureus ATCC43300 infected in sepsis mouse model assessed as log reduction in bacterial load in kidney at 5 mg/kg pre-infected with bacteria for 1 hrs followed by compound administration at 12 hrs interval for 2 days relative to control; type: functional; conditions: time 2 day
Escherichia coli [5] = experiment: Antibiofilm activity against Escherichia coli ATCC25922 assessed as inhibition of biofilm formation; type: functional, organism-based
Cell membrane [6] = experiment: Induction of cytoplasmic membrane depolarization in Staphylococcus aureus ATCC43300 assessed as increase in fluorescence intensity measured after 24 mins by DiSC3(5) dye-based fluorescence assay; conditions: dose 0.5-8 µg/ml
Escherichia coli [7] = experiment: (§1) Antibacterial activity against Escherichia coli ATCC25922 infected in sepsis mouse model assessed as reduction in liver damage at 5 to 10 mg/kg pre-infected with bacteria for 1 hrs followed by compound administration at 12 hrs interval for 2 days by H and E staining based analysis; type: functional, organism-based; conditions: dose 5-10 mg/kg, time 2.0 day
Cell membrane [8] = experiment: Disruption of cell membrane in Staphylococcus aureus ATCC43300 assessed as fold increase in DNA leakage at 8 microg/ml relative to control; type: subcellular; conditions: dose 8.0 µg/ml
Escherichia coli [9] = experiment: Antibiofilm activity against Escherichia coli ATCC25922 assessed as inhibition of biofilm formation at 8 microg/ml relative to control; type: functional
Staphylococcus aureus [10] = experiment: Antibacterial activity against Staphylococcus aureus ATCC43300 infected in sepsis mouse model assessed as reduction in liver damage at 5 to 10 mg/kg pre-infected with bacteria for 1 hrs followed by compound administration at 12 hrs interval for 2 days by H and E staining based analysis; type: functional, organism-based; conditions: dose 5-10 mg/kg, time 2.0 day
Staphylococcus aureus [11] = experiment: Bactericidal activity against Staphylococcus aureus ATCC43300 in presence of 50% serum; type: functional
Cell membrane [12] = experiment: Induction of cytoplasmic membrane depolarization in Staphylococcus aureus ATCC43300 assessed as increase in fluorescence intensity at 0.5 microg/ml measured after 24 mins by DiSC3(5) dye-based fluorescence assay; conditions: dose 0.5 µg/ml
Staphylococcus aureus [13] = experiment: Antibacterial activity against erythromycin susceptible Staphylococcus aureus ATCC25923 by broth microdilution assay; type: functional
Escherichia coli [14] = experiment: Bactericidal activity against Escherichia coli ATCC25922 in Mueller Hinton Broth; type: functional
[15] = Selectivity index, ratio of HC50 for hemolytic activity in red blood cells (unknown origin) to MIC for antibacterial activity against penicillin-susceptible Escherichia coli ATCC25922; type: toxicity, cell-based, RBC; conditions: read-out: Selectivity Index
Escherichia coli [16] = experiment: Bactericidal activity against Escherichia coli ATCC25922 measured upto 24 hrs by time-kill kinetics assay; type: functional, organism-based; conditions: dose 1-8 µg/ml
Escherichia coli [17] = experiment: as §1, with “inflammatory cell infiltration in spleen” for “liver damage”, “at” for “at 5 to”; type: functional, organism-based; conditions: time 2.0 day
Staphylococcus aureus [18] = experiment: Bactericidal activity against Staphylococcus aureus ATCC43300 in Mueller Hinton Broth; type: functional
Staphylococcus aureus [19] = experiment: Bactericidal activity against Staphylococcus aureus ATCC43300 assessed as elimination of bacteria at 8 microg/ml measured within 6 hrs by time-kill kinetics assay relative to control; type: functional; conditions: dose 8 µg/ml
Escherichia coli [20] = experiment: Antibacterial activity against Escherichia coli ATCC25922 measured after 20 passages; type: functional, organism-based
Staphylococcus aureus [21] = experiment: Bactericidal activity against Staphylococcus aureus ATCC43300 assessed as elimination of bacteria at 8 microg/ml measured within 4 hrs by time-kill kinetics assay relative to control; type: functional; conditions: dose 8 µg/ml
Staphylococcus aureus [22] = experiment: Antibacterial activity against Staphylococcus aureus ATCC43300 infected in sepsis mouse model assessed as log reduction in bacterial load in kidney at 10 mg/kg pre-infected with bacteria for 1 hrs followed by compound administration at 12 hrs interval for 2 days relative to control; type: functional; conditions: time 2 day
[23] = Ratio of MBC for Escherichia coli ATCC25922 in presence of 50% plasma to MBC for Escherichia coli ATCC25922 in Mueller Hinton Broth; type: functional
Escherichia coli [24] = experiment: Antibiofilm activity against Escherichia coli ATCC25922 assessed as inhibition of biofilm formation at 1 microg/ml relative to control; type: functional
Escherichia coli [25] = experiment: Antibacterial activity against Escherichia coli ATCC25922 infected in sepsis mouse model assessed as reduction in kidney inflammation at 5 to 10 mg/kg pre-infected with bacteria for 1 hrs followed by compound administration at 12 hrs interval for 2 days by H and E staining based analysis; type: functional, organism-based; conditions: dose 5-10 mg/kg, time 2.0 day
Escherichia coli [26] = experiment: Bactericidal activity against Escherichia coli ATCC25922 in presence of 50% serum; type: functional
Cell membrane [27] = experiment: Disruption of cell membrane in Escherichia coli ATCC25922 assessed as increase in intracellular ROS level by DCFH-DA staining based fluorescence analysis; conditions: dose 1-8 µg/ml
[28] = Hemolytic activity in red blood cells (unknown origin); type: toxicity, cell-based, Erythrocyte
Cell membrane [29] = experiment: Disruption of cell membrane in Staphylococcus aureus ATCC43300 assessed as increase in DNA leakage; conditions: dose 1-8 µg/ml
[30] = Ratio of MBC for Staphylococcus aureus ATCC43300 measured after 6 hrs in presence of 50% plasma to MBC for Staphylococcus aureus ATCC43300 in Mueller Hinton Broth; type: functional
Cell membrane [31] = experiment: Disruption of cell membrane in Staphylococcus aureus ATCC43300 assessed as increase in protein leakage; type: subcellular; conditions: dose 1-8 µg/ml
Staphylococcus aureus [32] = experiment: Bactericidal activity against Staphylococcus aureus ATCC43300 assessed as log reduction in bacterial colony at 8 microg/ml measured upto 24 hrs by time-kill kinetics assay; type: functional; conditions: dose 8 µg/ml
Escherichia coli [33] = experiment: Antibacterial activity against Escherichia coli ATCC25922 infected in sepsis mouse model assessed as reduction in kidney damage at 5 to 10 mg/kg pre-infected with bacteria for 1 hrs followed by compound administration at 12 hrs interval for 2 days by H and E staining based analysis; type: functional, organism-based; conditions: dose 5-10 mg/kg, time 2.0 day
Staphylococcus aureus [34] = experiment: Antibiofilm activity against Staphylococcus aureus ATCC43300 assessed as inhibition of biofilm formation at 1 microg/ml relative to control; type: functional
Cell membrane [35] = experiment: Induction of inner membrane permeabilization in Staphylococcus aureus ATCC43300 assessed as increase in fluorescence intensity incubated for 20 mins by PI uptake assay; type: subcellular; conditions: dose 0.5-8 µg/ml
[36] = Toxicity in ip dosed BALB/c mouse assessed as maximum tolerated dose measured after 7 days; type: organism-based; conditions: in vivo, time 7 day
Staphylococcus aureus [37] = experiment: Antibacterial activity against Staphylococcus aureus ATCC43300 infected in sepsis mouse model assessed as reduction in spleen damage at 5 to 10 mg/kg pre-infected with bacteria for 1 hrs followed by compound administration at 12 hrs interval for 2 days by H and E staining based analysis; type: functional, organism-based; conditions: dose 5-10 mg/kg, time 2.0 day
Cell membrane [38] = experiment: Disruption of cell membrane in Escherichia coli ATCC25922 assessed as appearance of red fluorescence by PI staining based fluorescence microscopic analysis; type: subcellular
Cell membrane [39] = experiment: Induction of inner membrane permeabilization in Escherichia coli ATCC25922 assessed as increase in fluorescence intensity incubated for 20 mins by PI uptake assay; type: subcellular; conditions: dose 0.5-8 µg/ml

Q: With `CCCCCCOc1cc[n+](CCCOc2ccc(/C=C/C(=O)c3ccc(OCCC[n+]4ccc(OCCCCCC)cc4)cc3)cc2)cc1.[Br-].[Br-]` as the compound, how does the “log(activity)” value (Staphylococcus aureus [1]) read?
A: 0.8

Q: And the inhibition at 16 µg/mL (Escherichia coli [2])?
A: 50.9%

Q: What about the Activity (Staphylococcus aureus [3]) of the same compound?
A: Dose-dependent-effect

Q: And the “log(activity)” value (Staphylococcus aureus [4])?
A: 0.86

Q: And the Activity (Escherichia coli [5])?
A: Dose-dependent-effect

Q: What about the Activity (Cell membrane [6]) of the same compound?
A: Dose-dependent-effect

Q: What about the Activity (Escherichia coli [7]) of the same compound?
A: Active

Q: What about the fold change (FC) (Cell membrane [8]) of the same compound?
A: 12

Q: And the inhibition at 8 µg/mL (Escherichia coli [9])?
A: 48.7%

Q: What about the Activity (Staphylococcus aureus [10]) of the same compound?
A: Active

Q: And the MBC (Staphylococcus aureus [11])?
A: 16 µg/mL

Q: What about the Activity (Cell membrane [12]) of the same compound?
A: Not active; Fluorescence Intensity Remained Comparable To Negative Control

Q: And the MIC (Staphylococcus aureus [13])?
A: 1 µg/mL

Q: And the MBC (Escherichia coli [14])?
A: 8 µg/mL

Q: And the selectivity ratio [15]?
A: 329

Q: What about the Activity (Escherichia coli [16]) of the same compound?
A: Dose-dependent-effect

Q: And the Activity (Escherichia coli [17])?
A: inactive

Q: And the MBC (Staphylococcus aureus [18])?
A: 4 µg/mL

Q: And the Activity (Staphylococcus aureus [19])?
A: 100%

Q: And the Activity (Escherichia coli [20])?
A: Active

Q: What about the Activity (Staphylococcus aureus [21]) of the same compound?
A: >=99.9%

Q: What about the “log(activity)” value (Staphylococcus aureus [22]) of the same compound?
A: 1.76

Q: And the Ratio [23]?
A: <2

Q: And the inhibition at 1 µg/mL (Escherichia coli [24])?
A: 12.3%

Q: What about the Activity (Escherichia coli [25]) of the same compound?
A: Active

Q: And the MBC (Escherichia coli [26])?
A: 32 µg/mL

Q: And the Activity (Cell membrane [27])?
A: Dose-dependent-effect

Q: What about the HC50 [28] of the same compound?
A: 329 µg/mL

Q: What about the Activity (Cell membrane [29]) of the same compound?
A: Dose-dependent-effect

Q: What about the Ratio [30] of the same compound?
A: <4

Q: And the Activity (Cell membrane [31])?
A: Dose-dependent-effect

Q: And the “log(activity)” value (Staphylococcus aureus [32])?
A: 7.24

Q: What about the Activity (Escherichia coli [33]) of the same compound?
A: Active

Q: And the inhibition at 1 µg/mL (Staphylococcus aureus [34])?
A: 6.91%

Q: What about the Activity (Cell membrane [35]) of the same compound?
A: Dose-dependent-effect

Q: What about the MTD at 168 h [36] of the same compound?
A: 50 mg/kg

Q: And the Activity (Staphylococcus aureus [37])?
A: Active

Q: What about the Activity (Cell membrane [38]) of the same compound?
A: Active

Q: And the Activity (Cell membrane [39])?
A: Dose-dependent-effect
